Test results published in patent publication US11564912B2, “Methods for treating irritable bowel syndrome (IBS)” (Salix Pharmaceuticals, Inc., priority 2008, dated 2023).

Tests used:
[1] = system: patients with diarrhea-predominant IBS (dIBS); assay: 34-item IBS-QOL questionnaire, rifaximin 550 mg BID vs placebo; type: in vivo, human; design: key to Mean Change From Baseline in IBS-QOL Scores at Week 4: change in score on 0–100 scale, higher = better QOL; settings: for Mean Change From Baseline in IBS-QOL Scores at Week 4: Rifaximin 1100 mg/d (n = 191)
Procedure: Both groups received placebo for an additional 14 days after the initial 2-week treatment. Quality of life was assessed with the 34-item IBS-QOL questionnaire at baseline and 4 weeks after initiating treatment. Each item was scored on a 5-point scale (1=not at all; 2=slightly; 3=moderately; 4=quite a bit; and 5=extremely or a great deal). Results for composite and subscale scores were converted to a scale ranging from 0 to 100, with higher scores indicating better QOL.
Following a 2-week initial treatment period, both groups of patients received placebo for an additional 14 days. Quality of life was assessed via the 34-item IBS-QOL questionnaire at baseline and 4 weeks after initiating treatment. Each item was scored on a 5-point scale (1=not at all; 2=slightly; 3=moderately; 4=quite a bit; 5=extremely or a great deal); results for composite and subscale scores were converted to a scale ranging from 0 to 100, with higher scores indicating better QOL.

subjects with dIBS = assay: Study of rifaximin BID in subjects with dIBS: adequate relief of IBS symptoms and bloating; type: in vivo, human; settings: rifaximin 550 mg BID 14 days, patients with dIBS
[2] = system: patients with nonconstipation irritable bowel syndrome (non-C IBS); assay: Trial of rifaximin 550 mg TID for 14 days with 10-week follow-up (Example 5; Study 2 of Example 6); type: in vivo, human
[3] = oral administration; Descombe et al. 1994; cited from earlier work

## (2S,16Z,18E,20S,21S,22R, 23R,24R,25S,26S,27S,28E)-5,6,21,23,25 Pentahydroxy-27-methoxy -2,4,11,16,20,22,24,26-octamethyl-2,7-(epoxypentadeca-(1,11,13)trienimino)benzofuro (4,5-e) pyrido(1,2,-a) benzimidazole-1,15(2H)-dione,25-acetate [Rifaximin]
[1]; Body image
  Improvement with rifaximin over placebo, IBS-QOL at Week 4: 37.4%
  Mean Change From Baseline in IBS-QOL Scores at Week 4: 20.1
[1]; Dysphoria
  Improvement with rifaximin over placebo, IBS-QOL at Week 4: 25.3%
  Mean Change From Baseline in IBS-QOL Scores at Week 4: 24.8
[1]; Food avoidance
  Improvement with rifaximin over placebo, IBS-QOL at Week 4: 22.1%
  Mean Change From Baseline in IBS-QOL Scores at Week 4: 25.0
[1]; Health worry
  Improvement with rifaximin over placebo, IBS-QOL at Week 4: 30.6%
  Mean Change From Baseline in IBS-QOL Scores at Week 4: 16.0
[1]; Interference with activity
  Improvement with rifaximin over placebo, IBS-QOL at Week 4: 22.2%
  Mean Change From Baseline in IBS-QOL Scores at Week 4: 22.2
[1]; Overall score
  Improvement with rifaximin over placebo, IBS-QOL at Week 4: 28.7%
[1]; Overall score, 14 days, scale 0 to 100
  Mean Change From Baseline in IBS-QOL Scores at Week 4: 20.4
[1]; Relationship
  Improvement with rifaximin over placebo, IBS-QOL at Week 4: 39.5%
  Mean Change From Baseline in IBS-QOL Scores at Week 4: 14.9
[1]; Sexual
  Improvement with rifaximin over placebo, IBS-QOL at Week 4: 24.9%
  Mean Change From Baseline in IBS-QOL Scores at Week 4: 13.6
[1]; Social reaction
  Improvement with rifaximin over placebo, IBS-QOL at Week 4: 31.6%
  Mean Change From Baseline in IBS-QOL Scores at Week 4: 17.3
Subjects with dIBS
  Tolerability, incidence of adverse events compared with placebo: well tolerated
[2]; 550 mg rifaximin TID
  Subjects with skin or subcutaneous tissue disorders: 1.3%
[2]; Rifaximin 550 mg TID, randomized subjects (316)
  Early discontinuation of study, primary reason Adverse Event/Serious Adverse Event: 0 n (%)
[3]
  Systemic absorption: negligible
